Reference: US6348309B1, “Process for inactivating viruses in blood and blood products” (priority 1989, dated 2002)
“Also recorded” adds a separate entry of the source.

Experiments:
adenovirus = assay: Photodynamic treatment of adenovirus with pre-incubation in the dark, titrated on FL cells (Example 7); assay type: cell-based; details: TB instead of MB, same conditions
[1] = tested on: Eastern equine encephalomyelitis (EEE) virus; details: cited from earlier work
[2] = 1 to 2 mg/kg of body weight; cited from earlier work

Cc1cc2nc3ccc(N(C)C)cc3[s+]c2cc1N.[Cl-] [TB, toluidine blue]
effect of photodynamic treatment on virus titer (adenovirus): not reduced | inactivation of EEE virus in plasma [1]: effectively inactivated; also recorded: failed to inactivate the virus completely | side effects in therapeutic use [2]: without any significant side effects
